The values that follow come from patent US7795227B2, “Compounds and methods for treating seizure disorders” (Wisconsin Alumni Research Foundation, priority 2004, dated 2010).

Series [1] concerns kindled seizures evoked by perforant path stimulation. Put plainly: Kindling model of temporal lobe epilepsy, perforant path stimulation. The series is classed as in vivo, rat. The text has this:
In the kindling model, repeated activation of neural pathways in vivo induces progressive electrographic and behavioral seizures, permanent increases in susceptibility to additional seizures, and eventually spontaneous seizures (Goddard et al., 1969, Experimental Neurology 25: 295-330; Pinel, 1978, Experimental Neurology 58: 190-202; Wada et al., 1975, Canadian Journal of Neurological Sciences 2: 477-492; Sayin et al. 2003, Journal of Neuroscience 23: 2759-2768). Kindling has become the most extensively studied experimental model of epilepsy (McNamara, 1999, Nature 399: A15-22). In a typical kindling protocol, periodic stimulation delivered once or twice daily gradually evokes an increasing synchronous electrical afterdischarge (AD) or electrographic seizure accompanied by a behavioral seizure. […] Kindling can be induced by electrical or chemical activation of a variety of neural pathways in a range of species that include amphibians, mammals, and primates (Morrell and Tsuru, 1976, Electroencephalography and Clinical Neurophysiology 40: 1-11); Wada and Mizoguchi, 1984; Epilepsia 25: 278-287). Because kindling induces permanent alterations in the brain and can be evoked in a range of species by a variety of stimuli, it has been regarded as a phenomenon of long-term brain plasticity as well as a model of temporal lobe epilepsy. The behavioral features of brief repeated kindled seizures evoked by limbic stimulation resemble human partial complex seizures with secondary generalization. In the early stages of limbic kindling in rodents, each stimulation evokes an AD accompanied by a brief partial seizure, which progresses to stimulus-evoked secondary generalized seizures. This feature is an example of the progressive functional alterations induced by kindling that are epileptogenic.
Adult male Sprague-Dawley rats (weighing between 250-350 g, obtained from Harlan, Madison, Wis.) were anesthetized with ketamine (80 mg/kg intramuscularly) and xylazine (10 mg/kg intramuscularly), and were stereotactically implanted with an insulated stainless steel bipolar electrode for stimulation and recording. The electrode was implanted in the perforant path (8.1 mm posterior, 4.4 mm lateral, 3.5 mm ventral with respect to bregma), and was fixed to the skull with acrylic. After a two-week recovery period following electrode placement, unrestrained, awake, implanted rats received twice-daily kindling stimulation (5 days per week) with a one-second train of 62-Hertz (Hz) biphasic constant current 1.0-millisecond (ms) square wave pulses to induce kindled seizures. The electroencephalogram was recorded from the bipolar electrode, which was switched to the stimulator for the delivery of kindling stimulation. On the first day of stimulation, each rat received a stimulus train of 500 microAmperes (μA). If an AD was evoked, this intensity was used in subsequent stimulations. If no AD was evoked, the stimulation intensity was increased in a sequence of 500, 700, 900, 1000, 1100, 1200, 1300 and 1400 μA until an AD was evoked. The intensity that initially evoked AD was used for subsequent stimulations. […] If AD was evoked by 3 consecutive stimulations at a given intensity, the stimulation intensity was then decreased by 100 μA decrements. At stimulation intensities below 500 μA, the intensity was decreased in 30 μA decrements. These stimulation procedures deliver stimulation at the lowest intensity required to evoke an AD (Sutula and Steward, 1986, Journal of Neurophysiology 56: 732-746; Cavazos et al., 1991, Journal of Neuroscience 11: 2795-2803).
The anticonvulsant and antiepileptic effects of 2-DG were confirmed in rats that experienced kindled seizures evoked by perforant path stimulation according to the protocol noted above. […]

Series [2] relates to rat hippocampal slices (CA3 synchronized burst discharges). Put plainly: Synchronized bursting induced by elevated [K+]o in hippocampal slices, CA3 extracellular recording. In kind it is cell-based. The protocol:
In these experiments, postnatal day 14 to 35 male Sprague-Dawley rats were anesthetized and decapitated. Brains were removed and transferred to ice cold artificial cerebrospinal fluid (ACSF), comprising 124 mM NaCl, 5 mM KCl, 1.25 mM NaH2PO4, 1.5 mM MgSO4, and 26 mM NaHCO3, supplemented with 10 mM glucose), which was continuously bubbled with 95% O2 and 5% CO2. Transverse hippocampal slices (˜400 microns) were prepared on a Leica VT1000s vibratome (Wetzlar Germany). The slices were allowed to recover for 1 hour at room temperature and were then transferred to an interface recording chamber at 34° C. in ACSF with 7.5 mM [K^+]o. Extracellular recordings were made from the CA3 region with an Axioclamp 2B (Axon Instruments, Forest City, Calif.) using a glass microelectrode filled with 150 mM NaCl. Data were recorded and analyzed using PClamp8 (Axon Instruments).
Synchronized bursting was induced by incubating hippocampal slices in ACSF supplemented with to a final concentration of 7.5 mM [K^+]o, Baseline recordings were obtained after exposure to elevated [K^+]o for 1 hour and the burst frequency had stabilized.
The reduction in burst frequency is shown in graphical form in FIG. 7.
The effects of glucose deprivation on synchronized burst discharges were examined in rat hippocampal slices ex corpora using the methods described in Example 2. Spontaneous synchronized bursts were recorded in CA3 in ACSF containing 10 mM glucose supplemented with 7.5 mM [K^+]o for ˜1 hr, and then in glucose-free ACSF supplemented with 10 mM lactate or 10 mM pyruvate. […] The interburst interval increased to 24 seconds when the slice was exposed to glucose-free ACSF supplemented with 10 mM lactate, indicating an anticonvulsant effect of glucose deprivation.

The test system of series [3] is neuropathic pain (mechanical allodynia). Put plainly: Loose sciatic nerve ligation model of neuropathic pain, Von Frye filament test. The series is classed as in vivo, rat. The procedure:
The effects of 2-deoxy-D-glucose (2-DG), which has acute anticonvulsant properties in hippocampal slices and prevents the consequences of repeated evoked network synchronization in the kindling model of epilepsy, were evaluated for treatment of neuropathic pain. The effects of 2-DG were examined in the loose sciatic nerve ligation rat model of neuropathic pain. […] Effects of 2-DG on neuropathic pain were assessed by measurement of hindlimb withdrawal latency to mechanical stimulation and development of mechanical allodynia according to standardized methods.
Male Sprague-Dawley rats (Harlan, 250-350 g) were behaviorally tested by measuring hindlimb withdrawal latency in response to mechanical stimulation of the hindlimb with standardized Von Frye filaments of increasing diameter, in order to verify that all animals initially had normal responses prior to surgical procedures and treatments. In the Von Frye method, animals are placed on a wire mesh floor, and the hindlimb is stroked with standardized filaments of increasing diameter until withdrawal is observed. The size of the filament evoking withdrawal is the Von Frye score. Withdrawal to smaller filaments indicates hyperalgesia, or mechanical allodynia when normally innocuous filaments produce withdrawal, and are regarded as measures of pain. Baseline withdrawal scores were used to assess effects of sciatic ligation and treatment with 2-DG.
After obtaining baseline measurements, animals were then anesthetized with a combination of ketamine 70 mg/kg IP and xylazine […]. The sciatic nerve was exposed at mid-thigh level by blunt dissection through the biceps femoris muscles. […] The incision was closed in layers, and during the immediate post-operative period the animals were monitored for signs of behavior that would signify unexpected and undesirable reaction to the surgical procedure (loss of weight or appetite, lack of grooming or loss of locomotion).
Hindlimb withdrawal responses were assessed postoperatively to verify that mechanical allodynia and hyperalgesia were induced as a result of the surgical ligation. […]

Structures are written as SMILES. “And” between values parts separate entries of the source, which are not always exact repeats. Equal entries are not always repeated. “Also recorded” adds a separate entry of the source.

Take `O=CC[C@@H](O)[C@H](O)[C@H](O)CO` [2-DG, 2-deoxy-D-glucose]: the “Duration of anticonvulsant effects after stopping 2-DG” value in series [1] (250 mg/kg twice daily for 3 months, twice daily stimulation continued) is “approximately 8 weeks”. Moreover, the “Effective dose in rats” value in series [1] (intraperitoneal or subcutaneous administration) is listed as 250 mg/kg. In addition, the “Time AD threshold remained elevated after stopping twice daily 2-DG” value in series [1] (kindled rat, 250 mg/kg IP) is on record as at most 6 weeks. In addition, in series [1] (rats n=15 vs saline n=12, p<0.001 ANOVA, FIG. 2A), the “Effect on AD threshold compared to saline controls” value is reported as “increased the AD threshold”. For the same compound, the “ADs to Class 4” value in series [1] (rats, 2-DG 250 mg/kg IP 30 minutes before stimulation) is reported as 20.9 +/− 4.0 ADs. For the same compound, the “ADs to Class 5 (first Class V generalized tonic clonic seizure)” value in series [1] (rats, 2-DG 250 mg/kg IP 30 minutes before stimulation, n=11, p<0.03 vs saline) is 27.7±6.0 ADs and 27.7 +/− 6.0 ADs. Further, in series [1] (rats, 2-DG 250 mg/kg IP 30 minutes before stimulation, number of afterdischarges to reach seizure class), the “ADs to Class 3” value is reported as 16.7 +/− 3.1 ADs. Further, the “AD threshold during repeated 2-DG administration” value in series [1] (single kindled rat, 250 mg/kg IP, from 200 μA, about 2-3 weeks of twice daily stimulation) is reported as around 1500 μA. In series [1] (single kindled rat, FIG. 3, 250 mg/kg IP, rose from ~200 μAmps during 2-3 weeks), the “AD threshold after restarting 2-DG” value came to 1500 μAmps. Moreover, the “Progressive reduction in AD threshold with repeated ADs” value in series [1] (single rat, FIG. 3, 250 mg/kg IP prior to each stimulation, after the third evoked AD) is “appeared to prevent the progressive reduction in AD threshold”. Also, the “Burst frequency (epileptic bursts) after bath application” value in series [2] (1 mM 2-DG, 7.5 mM [K+]o, FIG. 4B/4C) is listed as “reduction in epileptic bursts; also recorded: decreased progressively”. In addition, the “Persistence of anticonvulsant effect after return to ACSF without 2-DG” value in series [2] (ACSF with 7.5 mM [K+]o, FIG. 5B) is at most 60 min. In series [3] (250 mg/kg IP), the “Day of administration after which pain-reducing effects diminished or were extinguished” value was 4 to 5 days and 4 days; the “Motor or behavioral impairments” value is on record as “did not result in any apparent motor or behavioral impairments”. In addition, the “Mechanical allodynia (Von Frye score) compared to saline” value in series [3] (250 mg/kg IP 30 minutes prior to testing, n=10, p=0.044 day 1, p<0.001 day 2) was “acutely reduced mechanical allodynia”.
As for `O=C(O)CI` [iodoacetate, reference compound], the “Synchronized bursting in presence of iodoacetate” value in series [2] (200 uM iodoacetate, ACSF with 10 mM glucose or 10 mM lactate, FIGS. 6 and 7) is “reduced synchronized bursting”. Moreover, the “Reduction in epileptic bursts with lactate as alternative energy source” value in series [2] (iodoacetate, lactate provided, FIG. 7) is “persists”.
Take `CC(O)C(=O)O` (stereo not drawn) [lactate]: in series [2] (glucose-free ACSF with 10 mM substitute energy source, 7.5 mM [K+]o, baseline in 10 mM glucose ~3.8 seconds), the Interburst interval was 24 s.
